How the values were obtained:
Uba1 [1] = target: T1, Uba1 (Saccharomyces cerevisiae, UniProt P22515, D544E); assay: colorimetric ATPase assay (BIOMOL-GREEN phosphate, pyrophosphatase-coupled); type: biochemical; settings: 80 μM ubiquitin, 1 mM ATP, 2 mM MgCl2, pH 7.5, 30 °C; turnover
T1 construct: residues 10-1024; N-terminal His-tag (pET28a); expressed in E. coli BL21 (DE3)

Uba1 [2] = target: T2, Uba1 (Saccharomyces cerevisiae, UniProt P22515, D472A); assay: as above; type: biochemical; settings: 80 μM ubiquitin, 1 mM ATP, 2 mM MgCl2, pH 7.5, 30 °C; turnover
T2 construct: residues 10-1024; N-terminal His-tag (pET28a); expressed in E. coli BL21 (DE3)
T2 sequence (P22515 10-1024 D472A): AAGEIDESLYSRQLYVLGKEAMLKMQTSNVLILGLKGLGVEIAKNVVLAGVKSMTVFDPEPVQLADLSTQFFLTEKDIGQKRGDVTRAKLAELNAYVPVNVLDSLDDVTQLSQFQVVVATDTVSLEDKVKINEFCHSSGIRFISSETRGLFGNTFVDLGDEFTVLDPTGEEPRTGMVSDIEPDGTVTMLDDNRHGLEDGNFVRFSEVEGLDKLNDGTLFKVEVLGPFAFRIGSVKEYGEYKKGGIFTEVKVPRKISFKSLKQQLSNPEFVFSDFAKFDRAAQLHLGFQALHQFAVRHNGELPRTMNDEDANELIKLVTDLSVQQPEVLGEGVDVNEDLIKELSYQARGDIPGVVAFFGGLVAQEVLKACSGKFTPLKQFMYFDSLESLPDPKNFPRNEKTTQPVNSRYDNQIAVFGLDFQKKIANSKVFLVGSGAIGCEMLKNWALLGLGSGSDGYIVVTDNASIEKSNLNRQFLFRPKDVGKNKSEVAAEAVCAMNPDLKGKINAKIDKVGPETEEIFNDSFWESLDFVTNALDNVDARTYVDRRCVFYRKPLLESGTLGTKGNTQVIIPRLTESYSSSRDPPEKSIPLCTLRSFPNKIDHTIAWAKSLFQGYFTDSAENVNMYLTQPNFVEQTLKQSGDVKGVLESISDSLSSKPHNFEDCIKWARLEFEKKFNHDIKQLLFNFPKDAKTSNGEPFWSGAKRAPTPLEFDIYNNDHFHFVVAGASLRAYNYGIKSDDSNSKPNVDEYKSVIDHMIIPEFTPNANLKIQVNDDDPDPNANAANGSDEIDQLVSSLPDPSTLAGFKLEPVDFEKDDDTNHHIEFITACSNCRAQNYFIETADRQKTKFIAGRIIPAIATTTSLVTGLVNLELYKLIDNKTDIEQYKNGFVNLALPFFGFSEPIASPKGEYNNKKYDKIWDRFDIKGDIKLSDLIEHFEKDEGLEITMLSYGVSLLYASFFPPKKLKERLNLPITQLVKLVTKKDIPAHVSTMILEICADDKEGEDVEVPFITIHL

T1 sequence (P22515 10-1024 D544E): as the sequence (P22515 10-1024 D472A) above, with A463D, D535E counted along it

## Nc1ncnc2c1ncn2[C@@H]1O[C@H](COP(=O)(O)OP(=O)(O)OP(=O)(O)O)[C@@H](O)[C@H]1O [ATP]
Uba1 [1]
  colorimetric ATPase assay (BIOMOL-GREEN phosphate, pyrophosphatase-coupled): the D472A variant retained full activity as did the D472E or D544E substitutions
Uba1 [2]
  colorimetric ATPase assay (BIOMOL-GREEN phosphate, pyrophosphatase-coupled): the D472A variant retained full activity as did the D472E or D544E substitutions

— article PMC9378703 (Nature Communications, 2022)
